Test results: patent US8197859B2, “Lipolysis stimulator” (Kao Corporation, priority 2006, dated 2012)

Columns and labels:
Format in all cases: cell-based, rat (male Wistar)
[1] = tested on: free adipocytes from abdominal subcutaneous adipose tissue; assay: Test Example 3: lipolysis-stimulating activity (free glycerol) in free adipocytes with norepinephrine; Huang Hua Cai extract and aminophylline; settings: Rattus norvegicus, Adipocyte, aminophylline singly, 90 nM norepinephrine, control = 100%
Experimental: (§1) Specifically, free adipocytes were recovered from the abdominal subcutaneous adipose tissue of each of one to three male Wistar rats (each having a body weight of 170 to 230 g) by use of a collagenase solution.
(§2) The free adipocytes were incubated at 37° C. for 2 hours in a Hanks buffer solution containing bovine serum albumin and 90 nM norepinephrine (reaction mixture) to which each test substance had been added. The resultant free glycerol was assayed through an enzymatic method (Free Glycerol Reagent, product of Sigma-Aldrich).
(§3) As a control, adipocytes were incubated in the same buffer containing only norepinephrine but no test substance.
(§4) Lipolysis-stimulating activity was calculated by the following equation, with 100% being a control value. Lipolysis-stimulating activity(%)=100×(free glycerol in each group)/(free glycerol in control group)
The procedure of Test Example 1 was repeated, except that caffeine was changed to aminophylline. The following substances were tested: and two different mixtures of Huang Hua Cai extract and aminophylline (hereinafter referred to as “Huang Hua Cai-aminophylline mixture”), i.e., Huang Hua Cai-aminophylline mixture 1 (Huang Hua Cai extract+1 μg/mL aminophylline), and a Huang Hua Cai-aminophylline mixture 2 (Huang Hua Cai extract+3 μg/mL aminophylline).
Aminophylline employed in the test was a commercial product (Sigma-Aldrich). […]

[2] = tested on: free adipocytes from abdominal subcutaneous adipose tissue; assay: Test Example 1: lipolysis-stimulating activity (free glycerol) in free adipocytes with norepinephrine; Huang Hua Cai extract and caffeine; settings: Rattus norvegicus, Adipocyte, caffeine singly, 90 nM norepinephrine, 37° C., 2 hours, control = 100%
Experimental: The Rodbell's method (Rodbell, M., J. Biol. Chem., 239, 375 (1964)) was employed. Specifically, free adipocytes were recovered from the abdominal subcutaneous adipose tissue of each of one to three male Wistar rats (each having a body weight of 170 to 230 g) by use of a collagenase solution.
The following substances were tested: the Huang Hua Cai extract (singly), caffeine (singly), and two different mixtures of Huang Hua Cai extract and caffeine (hereinafter referred to as “Huang Hua Cai-caffeine mixture”), i.e., Huang Hua Cai-caffeine mixture 1 (Huang Hua Cai extract+10 μg/mL caffeine), and Huang Hua Cai-caffeine mixture 2 (Huang Hua Cai extract+30 μg/mL caffeine).
as §2
To the reaction mixture, added the Huang Hua Cai extract at the final concentration of 0, 3, 10, 30 and 100 μg/mL, respectively, and caffeine at the final concentration of 0, 10 and 30 μg/mL, respectively. […]
Lipolysis-stimulating activity was calculated by the following equation, with 100% being a control value. […]

[3] = tested on: free adipocytes from abdominal subcutaneous adipose tissue; assay: Test Example 2: lipolysis-stimulating activity (free glycerol) in free adipocytes with norepinephrine; Huang Hua Cai extract and theophylline; settings: Rattus norvegicus, Adipocyte, theophylline singly, 90 nM norepinephrine, control = 100%
Experimental: as §1, §2, §3, §4
The following substances were tested: the Huang Hua Cai extract (singly), theophylline (singly), and two different mixtures of Huang Hua Cai extract and theophylline (hereinafter referred to as “Huang Hua Cai-theophylline mixture”), i.e., Huang Hua Cai-theophylline mixture 1 (Huang Hua Cai extract+1 μg/mL theophylline), and a Huang Hua Cai-theophylline mixture 2 (Huang Hua Cai extract+3 μg/mL theophylline). […]

Cn1c(=O)c2[nH]cnc2n(C)c1=O [Aminophylline, aminophylline]
activity at 1 µg/mL ([1]; 1 μg/mL): 140%
activity at 3 µg/mL ([1]; 3 μg/mL): 197%

Cn1c(=O)c2c(ncn2C)n(C)c1=O [Caffeine, caffeine]
activity at 10 µg/mL ([2]; 10 μg/mL): 157%
activity at 30 µg/mL ([2]; 30 μg/mL): 207%

Cn1c(=O)c2[nH]cnc2n(C)c1=O [Theophylline, theophylline]
activity at 1 µg/mL ([3]; 1 μg/mL): 142%
activity at 3 µg/mL ([3]; 3 μg/mL): 188%
